Test results published in patent US10253041B2, “7-phenylethylamino-4H-pyrimido[4,5-d][1,3]oxazin-2-one compounds and their use as mutant IDH1 inhibitors” (Eli Lilly and Company, priority 2015, dated 2019).
Where two headings read alike, the source gives them in different places.

Experiments:
IDH1/R132H = target: T1, IDH1/R132H (Homo sapiens, UniProt O75874, R132H); test: Biochemical assay for IDH1 R132H mutant enzyme (2HG by RapidFire MS); conditions: mean ± standard deviation of the mean; 90 minutes reaction
T1 construct: His-tag (N); made in house; host or cells: E. coli
Procedure: (§1) IDH1-R132H, IDH1-R132C, IDH2-R172K and IDH2-R140Q mutant enzymes catalyze the conversion of αKG to 2HG. 2HG is analyzed using in-line solid phase extraction and mass spectrometry. This analysis is carried out in a RapidFire® instrument coupled to a 6460 triple quadrupole mass spectrometer (G6460A Agilent).
(§2) IDH1 mutant (R132H and R132C) and IDH2 mutant (R140Q and R172K) proteins containing N-terminal His-tag are expressed in E. coli and purified using nickel affinity chromatography. The enzyme assays are carried out in V-bottom 96 well polypropylene plates containing 100 mM Tris-HCl buffer, 1 mM DTT, 0.005% TRITON™ X-100, 120 mM NaCl. For IDH1 R132H, α-ketoglutarate, NADPH and MnCl2 are included at final concentrations of 300 μM, 2.5 μM and 300 μM respectively. For IDH1 R132C, α-ketoglutarate, NADPH and MnCl2 are included at final concentrations of 100 μM, 10 μM and 100 μM respectively. For IDH2 R172K, α-ketoglutarate, NADPH and MnCl2 are included at final concentrations of 150 μM, 10 μM and 150 μM respectively. For IDH2 R140Q, α-ketoglutarate, NADPH and MnCl2 are included at final concentrations of 3000 μM, 10 μM and 100 μM respectively. Final pH=7.0. Test compound dissolved in DMSO stock is diluted in the reaction mix at a final DMSO concentration of 4%. Compounds are tested in dose-response format. The assay is started by addition of enzyme. Enzymes are used at the following final concentrations: IDH1 R132H, 2 nM; IDH1 R132C, 0.5 nM; IDH2 R172K, 1.2 nM; IDH2 R140Q, 1.2 nM. After 90 minutes the reaction is quenched by adding ACN (50:50) containing 3-hydroxy-1,5-pentanedioic-2,2,3,4,4-d5 acid (5d5-3HG) as an internal standard for mass spectrometry analysis and quantitation of reaction product. 2-Hydroxyglutarate (2HG) in quenched samples is separated using strong anionic exchange column chromatography (Phenomenex Strata-X-A SecurityGuard) and analyzed by mass spectrometry in a 6460 triple quadrupole mass spectrometer (G6460A Agilent). The 2HG signal detected is transformed into an analyte concentration using a calibration curve generated using known 2HG concentrations. […] IC50 values are obtained from the individual % inhibition values at different compound concentrations using a 4-parameter equation. These calculations are carried out using Activity Base (IDBS) or Screener (Genedata) data analysis programs.

IDH1/R132C = target: T2, IDH1/R132C (Homo sapiens, UniProt O75874, R132C); test: Biochemical assay for IDH1 R132C mutant enzyme (2HG by RapidFire MS); conditions: mean ± standard deviation of the mean; 90 minutes reaction
T2 construct: His-tag (N); made in house; host or cells: E. coli
Procedure: as §1, §2

IDH2/R172K = target: T3, IDH2/R172K (Homo sapiens, UniProt P48735, R172K); test: Biochemical assay for IDH2 R172K mutant enzyme (2HG by RapidFire MS); conditions: mean ± standard deviation of the mean; 90 minutes reaction
T3 construct: His-tag (N); made in house; host or cells: E. coli
T3 sequence (P48735 40-452 R172K): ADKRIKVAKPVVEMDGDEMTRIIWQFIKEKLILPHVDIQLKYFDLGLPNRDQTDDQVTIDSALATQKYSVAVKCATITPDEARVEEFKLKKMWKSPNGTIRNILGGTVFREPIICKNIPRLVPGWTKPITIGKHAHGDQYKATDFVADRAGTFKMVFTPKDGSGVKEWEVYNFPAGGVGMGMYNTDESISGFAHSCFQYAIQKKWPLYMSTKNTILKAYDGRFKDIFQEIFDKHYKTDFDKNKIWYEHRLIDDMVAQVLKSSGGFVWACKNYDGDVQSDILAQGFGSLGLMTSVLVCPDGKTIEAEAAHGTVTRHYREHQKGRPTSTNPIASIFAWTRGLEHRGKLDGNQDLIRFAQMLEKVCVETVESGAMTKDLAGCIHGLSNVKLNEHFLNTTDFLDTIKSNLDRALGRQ
Procedure: as §1, §2

[1] = tested on: IDH1/R132H in U87MG glioma cells; test: U87MG/IDH1R132H cell assay (intracellular 2HG); type: cell-based; conditions: 1 hour + 18 hours incubation, read-out: U87MG (IDH1/R132H 2-hydroxyglutarate IC50)
Procedure: To test the cellular inhibition of IDH1 mutant R132C, the fibrosarcoma cell line HT1080 (purchased from ATCC) is used. For testing cell-based inhibition of the R132H mutation, the U87MG glioma cell line (ATCC) was stably transfected with a DNA construct expressing the R132H mutant enzyme.
Cells are plated in poly-D-lys coated 96 well plates (12,000 cells/well) 18-24 hours previous to treatment with compounds. Four hours prior to compound treatment, cells are glutamine-starved by removing normal media and replacing with glutamine-free media. Following starvation, cells are then treated with different concentrations of test compounds (20 μM to 1 nM) dissolved in glutamine free media containing DMSO at a final concentration of 0.2%. The initial compound incubation is for 1 hour at 37° C./5% CO2. After 1 hour, glutamine is added to a final 2 mM concentration and the treated cells are then incubated for a further 18 hours at 37° C./5% CO2. Intracellular 2HG is analyzed in cell lysates obtained after media removal and treatment with lysis buffer (25 mM Tris-HCl pH 7.5, 150 mM NaCl, 1 mM EDTA, 1 mM EGTA/1% Triton-X 100). Cell lysates are conserved at −80° C. until processing. For analyte extraction, an aliquot of thawed lysate is transferred to a deep 96-well plate and treated with cold MeOH containing d5-3HG as an internal standard followed by chloroform and H2O (1:4:3:2). The upper phase is collected after separation and injected in HPLC to separate 2HG (and internal standard) using hydrophilic interaction (HILIC) chromatography coupled to MS/MS detection in a 6460 triple quadrupole mass spectrometer. Percent inhibition for each individual sample is obtained after normalizing calculated 2HG concentration to maximum and minimum references obtained in the presence and in the absence of glutamine during cell treatment with compounds. IC50 values are obtained from individual % inhibition using a sigmoidal dose-response 4-parameter equation. These calculations are carried out automatically using Activity Base (IDBS) or Screener (Genedata) data analysis programs.

T1 sequence (O75874 whole entry R132H): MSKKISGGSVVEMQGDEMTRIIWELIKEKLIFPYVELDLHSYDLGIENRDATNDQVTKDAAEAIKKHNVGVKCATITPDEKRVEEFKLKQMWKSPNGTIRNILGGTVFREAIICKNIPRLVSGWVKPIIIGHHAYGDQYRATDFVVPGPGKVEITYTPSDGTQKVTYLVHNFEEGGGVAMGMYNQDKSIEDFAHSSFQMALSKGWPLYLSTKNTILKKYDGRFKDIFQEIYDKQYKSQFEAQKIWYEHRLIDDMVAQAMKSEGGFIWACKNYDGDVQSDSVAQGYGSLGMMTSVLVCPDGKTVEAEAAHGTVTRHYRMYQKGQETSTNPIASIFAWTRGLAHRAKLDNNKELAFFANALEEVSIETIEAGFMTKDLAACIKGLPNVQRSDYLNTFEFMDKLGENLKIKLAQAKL
T2 sequence (O75874 whole entry R132C): as the sequence (O75874 whole entry R132H) above, with H132C counted along it

| IC50 (IDH1/R132H) [nM] | IC50 (IDH1/R132C) [nM] | IC50 (IDH2/R172K) [nM] | IC50 ([1]; Homo sapiens, U-87 MG, 19 h) [nM] | IC50 ([1]; Homo sapiens, U-87 MG) [nM] | Structure (SMILES) | IC50 [1] [nM] |
| --- | --- | --- | --- | --- | --- | --- |
| 50.9 ± 13.1 | 29.5 ± 8.2 | 5350 | 5.9 | – | C=CC(=O)N1CCN(Cc2ccc([C@H](C)Nc3ncc4c(n3)N(CC(C)C)C(=O)OC4)cc2)CC1 [Example 3, 1-Isobutyl-7-[[(1S)-1-[4-[(4-prop-2-enoylpiperazin-1-yl)methyl]phenyl]ethyl]amino]-4H-pyrimido[4,5-d][1,3]oxazin-2-one] | – |
| 78.6 ± 18.9 | 133 ± 32 | 1460 | 2.98 ± 2.58 | – | C=CC(=O)N1CC(OCc2ccc([C@H](C)Nc3ncc4c(n3)N(CC)C(=O)OC4)cc2)C1 [Example 4, 1-Ethyl-7-[[(1S)-1-[4-[(1-prop-2-enoylazetidin-3-yl)oxymethyl]phenyl]ethyl]amino]-4H-pyrimido[4,5-d][1,3]oxazin-2-one] | – |
| 56 ± 15.7 | 52.3 ± 22.5 | 13600 | 9.84 ± 8.1 | – | C=CC(=O)N1CC2(CN(Cc3ccc([C@H](C)Nc4ncc5c(n4)N(CC(C)C)C(=O)OC5)cc3)C2)C1 [Example 5, 1-Isobutyl-7-[[(1S)-1-[4-[(2-prop-2-enoyl-2,6-diazaspiro[3.3]heptan-6-yl)methyl]phenyl]ethyl]amino]-4H-pyrimido[4,5-d][1,3]oxazin-2-one] | – |
| 150 ± 24 | 162 ± 42 | 14100 | 17.4 ± 1.3 | – | C=CC(=O)N1CCN(c2ccc([C@H](C)Nc3ncc4c(n3)N(C(C)C)C(=O)OC4)cc2)CC1 [Example 6, 1-Isopropyl-7-[[(1S)-1-[4-(4-prop-2-enoylpiperazin-1-yl)phenyl]ethyl]amino]-4H-pyrimido[4,5-d][1,3]oxazin-2-one] | – |
| 39.7 ± 26 | 44.8 ± 21.9 | 482 | 5.64 ± 0.35 | – | C=CC(=O)N1CC(CCc2ccc([C@H](C)Nc3ncc4c(n3)N(CC)C(=O)OC4)cc2)C1 [Example 7, 1-Ethyl-7-[[(1S)-1-[4-[2-(1-prop-2-enoylazetidin-3-yl)ethyl]phenyl]ethyl]amino]-4H-pyrimido[4,5-d][1,3]oxazin-2-one] | – |
| 290 ± 170 | 209 ± 75 | 51700 | 18.9 ± 5.1 | – | C=CC(=O)N1CCC2(CC1)CN(Cc1ccc([C@H](C)Nc3ncc4c(n3)N(C(C)C)C(=O)OC4)cc1)C2 [Example 8, 1-Isopropyl-7-[[(1S)-1-[4-[(7-prop-2-enoyl-2,7-diazaspiro[3.5]nonan-2-yl)methyl]phenyl]ethyl]amino]-4H-pyrimido[4,5-d][1,3]oxazin-2-one] | – |
| 41.7 ± 3.6 | 62.9 ± 18.8 | 2090 | 3.68 ± 0.57 | – | C=CC(=O)N1CC(COc2ccc([C@H](C)Nc3ncc4c(n3)N(C(C)C)C(=O)OC4)cc2)C1 [Example 9, 1-Isopropyl-7-[[(1S)-1-[4-[(1-prop-2-enoylazetidin-3-yl)methoxy]-phenyl]ethyl]amino]-4H-pyrimido[4,5-d][1,3]oxazin-2-one] | – |
| 260 ± 35 | 309 ± 107 | 6610 | 7.14 ± 1.27 | – | C=CC(=O)N1CC(N(C)Cc2ccc([C@H](C)Nc3ncc4c(n3)N(CC)C(=O)OC4)cc2)C1 [Example 10, 1-Ethyl-7-[[(1S)-1-[4-[[methyl-(1-prop-2-enoylazetidin-3-yl)amino]methyl]-phenyl]ethyl]amino]-4H-pyrimido[4,5-d][1,3]oxazin-2-one] | – |
| 80.2 ± 51.9 | 119 ± 54.1 | 7840 | 7.35 ± 0.07 | – | C=CC(=O)N1CCN(Cc2ccc([C@H](C)Nc3ncc4c(n3)N([C@H](C)CO)C(=O)OC4)cc2)CC1 [Example 11, 1-[(1R)-2-Hydroxy-1-methyl-ethyl]-7-[[(1S)-1-[4-[(4-prop-2-enoylpiperazin-1-yl)methyl]phenyl]ethyl]amino]-4H-pyrimido[4,5-d][1,3]oxazin-2-one] | – |
| 515 ± 86 | 457 ± 229 | 25300 | – | 13.5 ± 1.1 | C=CC(=O)N1CCC(N(C)Cc2ccc([C@H](C)Nc3ncc4c(n3)N(CC)C(=O)OC4)cc2)CC1 [Example 12, 1-Ethyl-7-[[(1S)-1-[4-[[methyl-(1-prop-2-enoyl-4-piperidyl)amino]-methyl]phenyl]ethyl]amino]-4H-pyrimido[4,5-d][1,3]oxazin-2-one] | – |
| 77.7 ± 19.6 | 92.4 ± 15.4 | 5340 | 7.5 ± 0.283 | – | C=CC(=O)N1CC(OCc2ccc([C@H](C)Nc3ncc4c(n3)N(CC(C)C)C(=O)OC4)cc2)C1 [Example 13, 1-Isobutyl-7-[[(1S)-1-[4-[(1-prop-2-enoylazetidin-3-yl)oxymethyl]phenyl]ethyl]amino]-4H-pyrimido[4,5-d][1,3]oxazin-2-one] | – |
| – | 77.1 ± 10.2 | 469 ± 355 | – | – | C=CC(=O)N1CC=C(COc2ccc([C@H](C)Nc3ncc4c(n3)N(CC)C(=O)OC4)cc2)C1 [Example 22, 1-ethyl-7-[[(1S)-1-[4-[(1-prop-2-enoyl-2,5-dihydropyrrol-3-yl)methoxy]phenyl]ethyl]amino]-4H-pyrimido[4,5-d][1,3]oxazin-2-one] | – |

| Structure (SMILES) | IC50 (IDH1/R132H) [nM] | IC50 (IDH1/R132C) [nM] | IC50 (IDH2/R172K) [nM] | IC50 ([1]; Homo sapiens, U-87 MG, 19 h) [nM] | IC50 ([1]; Homo sapiens, U-87 MG) [nM] | IC50 [1] [nM] |
| --- | --- | --- | --- | --- | --- | --- |
| C=CC(=O)N1CCN(Cc2ccc([C@H](C)Nc3ncc4c(n3)N(C(C)C)C(=O)OC4)cc2)CC1 [Example 1, 1-Isopropyl-7-[[(1S)-1-[4-[(4-prop-2-enoylpiperazin-1-yl)methyl]phenyl]ethyl]amino]-4H-pyrimido[4,5-d][1,3]oxazin-2-one] | 29.1 ± 10.7 | 26.6 ± 10.3 | 1670 | 2.65 ± 0.07 | – | – |
| C=CC(=O)N1CCN(Cc2ccc([C@H](C)Nc3ncc4c(n3)N(CC)C(=O)OC4)cc2)CC1 [Example 2, 1-Ethyl-7-[[(1S)-1-[4-[(4-prop-2-enoylpiperazin-1-yl)methyl]phenyl]ethyl]amino]-4H-pyrimido[4,5-d][1,3]oxazin-2-one] | 110 ± 46 | 102 ± 43 | 5260 | – | – | 5.08 ± 1.65 |
